{"source": "patent US20170211035A1", "about": "“BIOLOGICAL INDICATORS” (American Sterilizer Company, priority 2016, published 2017)", "system": "Geobacillus stearothermophilus spores", "assay": "Steam resistance of biological indicators in the BIER vessel (kill kinetics, log population versus time)", "assay_type": "cell-based", "protocol": "In the following examples, the test organism is prepared using a standard lot of Geobacillus stearothermophilus spores suspended in an aqueous carbohydrate solution. In these examples, xylose and dextrose are used as the carbohydrates. Comparative examples are also provided wherein the carbohydrate is not used. In each case, the aqueous suspension is placed in a vial and allowed to dry. The resulting biological indicators are resistance tested. The tests show an unexpected decrease in resistance when the biological indicators are derived from a carbohydrate solution as compared to when no carbohydrate is used.\nIn these examples, the biological indicators are tested for resistance to steam sterilization using the biological indicator evaluation resistor (BIER) vessel depicted in FIG. 5A. Referring to FIG. 5A, BIER vessel 300 includes chamber 310, door 320, and interior shelf 330 for placement of the biological indicators. Steam, heat and pressure enters chamber 310 as indicated by arrow 340. Vent 350 is provided for the rapid release of steam, heat and pressure. Operation is controlled by a computerized processor, sensors, and valves designed to introduce rapid changes to the environment within the chamber 310.\nReferring to FIG. 5B, the process cycle used in the BIER vessel includes six phases, these phases being numbered as phases 1-6 in FIG. 5B. These phases can be described as follows:\nThe term “log population” refers to the log of the number of colony-forming units (cfu) of viable spores in the test sample. For example, a log population of 6 refers to 10^6 (or 1,000,000) viable colony-forming units of spores in the test sample.", "data": [{"smiles": "O=C[C@H](O)[C@@H](O)[C@H](O)CO", "note": "[xylose]", "values": [{"measurement": "resistance (time)", "setting": "steam at 121° C., spores dried from suspension in 0.5M carbohydrate solution", "result": "approximately 4 minutes"}, {"measurement": "time for a 6 log reduction (kill kinetics)", "setting": "steam at 121° C., spores dried from suspension in 1.67 M xylose solution", "result": "approximately 5 minutes"}, {"measurement": "resistance (time)", "setting": "steam at 132° C., spores dried from suspension in xylose solution as in Example 1 (1.67 M)", "result": "approximately 1.5 minutes"}]}]}
